Entries after “also recorded” stand apart in the source; their conditions may differ. Where two headings read alike, the source gives them in different places.
Assays:
Assay type in all cases: in vivo, human
[1] = Multiple ascending dose (MAD) part, plasma pharmacokinetics; details: for CL/F / Kel / AI / CLss/F / Cavg / Cmin / Fl / RAUC2: AUC0-12 (Day 8)/AUC0-inf (Day 1) / AUC(0-t) / AUC(0-inf) / Cmax / half-life / Vd/F: mean; for AUC(0-t) / AUC(0-inf) / Cmax / half-life / Vd/F / Tmax: human, plasma; for Vd/F: read-out: Vz/F; for Tmax: median
Experimental: (§1) Three cohorts of eight subjects each (six on active and two on placebo) were enrolled and received the following treatments orally: 100 mg, 200 mg, and 400 mg ASD-in-Capsule b.i.d. (one dose on Days 1 and 8, twice-daily doses from Days 2 to 7) (FIG. 4).
(§2) Blood samples were collected post-dosing on Day 1 (at 0.5, 1, 2, 3, 4, 6, 8, 12, and 16 hours) and Day 8 (at 0.5, 1, 2, 3, 4, 6, 8, 10, 12, 16, 20, 24, 30, 36, and 48 hours) as well as immediately pre-morning dose on Days 2-7 and 2 hours post-morning dose on Days 4 and 6. Within 15 minutes of collection, blood samples were centrifuged at 2000 rpm for 10 minutes at 4° C., and, subsequently, the plasma was aliquoted, frozen, and stored at −70° C. pending PK analyses.
(§3) The samples were subjected to liquid chromatography followed by analyses by tandem mass spectrometry. The lower limit of quantification for the compound of formula (I) was 5 ng/mL.
(§4) The plasma PK parameters were derived by non-compartmental analyses using Phoenix® WinNonlin® version 6.3 or higher (Pharsight Corporation Inc., Mountain View, CA, USA). PK variables were summarized using arithmetic mean, standard deviation, median, minimum, maximum, the percent coefficient of variation, geometric mean, and a two-sided 95% confidence limit of the arithmetic mean and the geometric mean.

[2] = Food effect (FE) part, plasma pharmacokinetics; details: for AUC / AUC(0-inf) / Cmax / AUC(0-t) / half-life / Vd/F / Tmax: human, plasma, po, 200 mg; for AUC: read-out: AUC0- GM; for Vd/F: read-out: Vz/F; for Tmax: median
Experimental: (§5) In this part, eight subjects received 200 mg ASD-in-Capsule orally as a single dose in a randomized way, once under fasting conditions and once after the intake of a high fat breakfast, with a wash-out period of one week between successive dosing (FIG. 4).
as §2, §3, §4
For the evaluations of food effect on the PK profile of the compound of formula (I), the analysis of variance (ANOVA) model included sequence, treatment, and period as fixed effects and subject nested within sequence as a random effect using the SASR mixed model procedure. Each ANOVA included calculation of Least Squares Means (LSM), the difference between LSM under fed condition (Test) over fasted condition (Reference), and the standard error associated with this difference.

[3] = Food effect (FE) part, safety and tolerability; details: for Adverse events possibly-related to drug administration: 200 mg, ASD formulation
Experimental: as §5
(§6) Safety and tolerability were assessed at pre-specified timepoints throughout the studies by AEs reporting, vital signs measurements, physical examination, laboratory tests, and ECG examinations.
(§7) Safety and tolerability data were evaluated for the treated population (all participants who took at least one dose of study medications). […] Descriptive statistics were used to evaluate the for safety and tolerability data and for plasma concentrations and PK parameters of the compound of formula (I).

[4] = Multiple ascending dose (MAD) part, safety and tolerability; details: for Adverse events possibly-related to drug administration: Multiple ascending dose, ASD formulation
Experimental: as §1, §6, §7

[5] = Treatment A (100 mg ASD-in-Capsule oral), Day 1
[6] = Treatment A (100 mg, b.i.d. Days 2-7), Day 8
[7] = Treatment B (200 mg ASD-in-Capsule oral), Day 1
[8] = Treatment B (200 mg, b.i.d. Days 2-7), Day 8
[9] = Treatment C (400 mg ASD-in-Capsule oral), Day 1
[10] = Treatment C (400 mg, b.i.d. Days 2-7), Day 8
[11] = oral, Treatment A (100 mg, b.i.d. Days 2-7), Day 8
[12] = oral, Treatment B (200 mg, b.i.d. Days 2-7), Day 8
[13] = oral, Treatment C (400 mg, b.i.d. Days 2-7), Day 8
[14] = 200 mg single oral dose, fed over fasted, geometric least-squares mean ratio
[15] = Treatment D: single oral dose 200 mg ASD-in-Capsule, fasted, mean
[16] = Treatment E: single oral dose 200 mg ASD-in-Capsule, fed (high-fat, high-calorie breakfast), mean

Cc1cccc(COc2ccc(Sc3ccoc3C3NC(=O)NC3=O)cc2)c1 (stereo not shown) [compound of formula (I)]
CL/F [1, 5]: 28.7 L/h
Kel [1, 5]: 0.106 h⁻¹
AI [1, 6]: 1.59
CLss/F [1, 6]: 23.1 L/h
Cavg [1, 6]: 365 ng/mL
Cmin [1, 6]: 156 ng/mL
Fl [1, 6]: 127%
Kel [1, 6]: 0.0897 h⁻¹
RAUC2: AUC0-12 (Day 8)/AUC0-inf (Day 1) ([1]; Treatment A (100 mg, b.i.d. Days 2-7)): 1.25
CL/F [1, 7]: 20.3 L/h
Kel [1, 7]: 0.119 h⁻¹
AI [1, 8]: 1.57
CLss/F [1, 8]: 16.2 L/h
Cavg [1, 8]: 1090 ng/mL
Cmin [1, 8]: 524 ng/mL
Fl [1, 8]: 132%
Kel [1, 8]: 0.0895 h⁻¹
RAUC2: AUC0-12 (Day 8)/AUC0-inf (Day 1) ([1]; Treatment B (200 mg, b.i.d. Days 2-7)): 1.26
CL/F [1, 9]: 24.0 L/h
Kel [1, 9]: 0.113 h⁻¹
AI [1, 10]: 1.40
CLss/F [1, 10]: 18.2 L/h
Cavg [1, 10]: 2060 ng/mL
Cmin [1, 10]: 1010 ng/mL
Fl [1, 10]: 142%
Kel [1, 10]: 0.115 h⁻¹
RAUC2: AUC0-12 (Day 8)/AUC0-inf (Day 1) ([1]; Treatment C (400 mg, b.i.d. Days 2-7)): 1.28
Steady state achieved ([1]; all three dose levels (100, 200, 400 mg b.i.d.)): ≤ 6 days
Increase of Cmax and AUC with dose ([1]; from 200 to 400 mg after multiple doses for a week): approximately in a dose-proportional manner
AUC(0-t) ([1]; oral, 100 mg, Treatment A (100 mg, b.i.d. Days 2-7), Day 8, read-out: AUC0-12): 4380 ng·h/mL
AUC(0-t) ([1]; oral, 200 mg, Treatment B (200 mg, b.i.d. Days 2-7), Day 8, read-out: AUC0-12): 13100 ng·h/mL
AUC(0-t) ([1]; oral, 400 mg, Treatment C (400 mg, b.i.d. Days 2-7), Day 8, read-out: AUC0-12): 24700 ng·h/mL
AUC(0-inf) [1, 11]: 6180 ng·h/mL
Cmax [1, 11]: 624 ng/mL
half-life [1, 11]: 8.37 h
Vd/F [1, 11]: 277 L
Tmax [1, 11]: 2 h
AUC(0-inf) [1, 12]: 19200 ng·h/mL
Cmax [1, 12]: 1920 ng/mL
half-life [1, 12]: 8.14 h
Vd/F [1, 12]: 189 L
Tmax [1, 12]: 1.5 h
AUC(0-inf) [1, 13]: 36300 ng·h/mL
Cmax [1, 13]: 3710 ng/mL
half-life [1, 13]: 6.57 h
Vd/F [1, 13]: 158 L
Tmax [1, 13]: 1.5 h
AUC(0-t) ([1]; po, 100 mg, Treatment A (100 mg ASD-in-Capsule oral), Day 1, read-out: AUC0-12): 2670 ng·h/mL
AUC(0-t) ([1]; po, 100 mg, Treatment A (100 mg ASD-in-Capsule oral), Day 1, read-out: AUC0-24): 3290 ng·h/mL
AUC(0-t) ([1]; po, 100 mg, Treatment A (100 mg ASD-in-Capsule oral), Day 1, read-out: AUC0-t): 3290 ng·h/mL
AUC(0-t) ([1]; po, 200 mg, Treatment B (200 mg ASD-in-Capsule oral), Day 1, read-out: AUC0-12): 7810 ng·h/mL
AUC(0-t) ([1]; po, 200 mg, Treatment B (200 mg ASD-in-Capsule oral), Day 1, read-out: AUC0-24): 9720 ng·h/mL
AUC(0-t) ([1]; po, 200 mg, Treatment B (200 mg ASD-in-Capsule oral), Day 1, read-out: AUC0-t): 9710 ng·h/mL
AUC(0-t) ([1]; po, 400 mg, Treatment C (400 mg ASD-in-Capsule oral), Day 1, read-out: AUC0-12): 14600 ng·h/mL
AUC(0-t) ([1]; po, 400 mg, Treatment C (400 mg ASD-in-Capsule oral), Day 1, read-out: AUC0-24): 18200 ng·h/mL
AUC(0-t) ([1]; po, 400 mg, Treatment C (400 mg ASD-in-Capsule oral), Day 1, read-out: AUC0-t): 18200 ng·h/mL
AUC(0-inf) [1, 5]: 3550 ng·h/mL
Cmax [1, 5]: 448 ng/mL
half-life [1, 5]: 6.9 h
Vd/F [1, 5]: 291 L
Tmax [1, 5]: 1 h
AUC(0-inf) [1, 7]: 10400 ng·h/mL
Cmax [1, 7]: 1200 ng/mL
half-life [1, 7]: 6.02 h
Vd/F [1, 7]: 176 L
Tmax [1, 7]: 1.02 h
AUC(0-inf) [1, 9]: 19900 ng·h/mL
Cmax [1, 9]: 2730 ng/mL
half-life [1, 9]: 6.48 h
Vd/F [1, 9]: 212 L
Tmax [1, 9]: 1 h
AUC ratio (Day 8/Day 1) ([1]; twice-daily administration, all three dose levels): approximately 1.7 fold
AUC0- GMR Treatment E/D [2, 14]: 103.42 percentage
AUC0-inf GMR Treatment E/D [2, 14]: 102.76 percentage
Cmax GMR Treatment E/D [2, 14]: 74.53 percentage
CL/F [2, 15]: 32.3 L/h
Kel [2, 15]: 0.0796 h⁻¹
CL/F [2, 16]: 32.3 L/h
Kel [2, 16]: 0.0917 h⁻¹
AUC ([2]; Treatment D: 200 mg single oral dose, fasted, geometric least-squares mean): 6260 ng·h/mL
AUC(0-inf) ([2]; Treatment D: 200 mg single oral dose, fasted, geometric least-squares mean, read-out: AUC0-inf GM): 6400 ng·h/mL
Cmax ([2]; Treatment D: 200 mg single oral dose, fasted, geometric least-squares mean, read-out: Cmax GM): 1020 ng/mL
AUC(0-t) [2, 15]: 6490 ng·h/mL
half-life [2, 15]: 9.36 h
AUC(0-inf) ([2]; Treatment D: single oral dose 200 mg ASD-in-Capsule, fasted, mean, read-out: AUC0-inf): 6620 ng·h/mL
Cmax ([2]; Treatment D: single oral dose 200 mg ASD-in-Capsule, fasted, mean, read-out: Cmax): 1050 ng/mL
Vd/F [2, 15]: 446 L
Tmax ([2]; Treatment D: single oral dose 200 mg ASD-in-Capsule, fasted): 1 h
AUC ([2]; Treatment E: 200 mg single oral dose, fed, geometric least-squares mean): 6480 ng·h/mL
AUC(0-inf) ([2]; Treatment E: 200 mg single oral dose, fed, geometric least-squares mean, read-out: AUC0-inf GM): 6580 ng·h/mL
Cmax ([2]; Treatment E: 200 mg single oral dose, fed, geometric least-squares mean, read-out: Cmax GM): 764 ng/mL
AUC(0-t) [2, 16]: 6800 ng·h/mL
half-life [2, 16]: 8.09 h
AUC(0-inf) ([2]; Treatment E: single oral dose 200 mg ASD-in-Capsule, fed (high-fat, high-calorie breakfast), mean, read-out: AUC0-inf): 6900 ng·h/mL
Cmax ([2]; Treatment E: single oral dose 200 mg ASD-in-Capsule, fed (high-fat, high-calorie breakfast), mean, read-out: Cmax): 787 ng/mL
Vd/F [2, 16]: 383 L
Tmax ([2]; Treatment E: single oral dose 200 mg ASD-in-Capsule, fed (high-fat, high-calorie breakfast)): 2.5 h
Adverse events possibly-related to drug administration ([3]; Food effect fasting status): headache
Adverse events possibly-related to drug administration ([3]; Food effect fed status): headache
Total number of AEs possibly related to treatment ([3]; food effect part, in one subject): two
Total number of AEs possibly related to treatment ([4]; MAD study, all dose levels): seven
Adverse events possibly-related to drug administration ([4]; 100 mg): fatigue; also recorded: cough
Adverse events possibly-related to drug administration ([4]; 200 mg): eye irritation; also recorded: erythema; also recorded: dizziness; also recorded: skin rash
Severe or serious AEs ([4]; Study II (MAD and FE parts)): No severe or serious AEs were reported
Changes from baseline in weight, vital signs, physical examination, laboratory or ECG data ([4]; Study II (MAD and FE parts), any time point): No clinically relevant changes
Safety and tolerability, overall ([4]; across all dose levels and dosing regimens studied): safe and generally well-tolerated

From US20240277670A1, “SAFE USE OF MMP-12 INHIBITOR” (Foresee Pharmaceuticals Co., Ltd., priority 2021, published 2024)
